In the supplement of paper PMC4862054:

Key:
Settings in all cases: incubation time: 72 h
Hs578T [1] = experiment: normalised response (% of control), CellTox Green; higher = less cell death (100 = DMSO, 0 = benzethonium chloride kill control)
Outline: (§1)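 Breast cancer cell lines, seeded at 20 µl suspension per well, were incubated for 72 h in 384-well plates containing compound at 5 concentrations. These concentrations rose in 10-fold steps over a 10,000-fold range set for each compound. CellTox Green fluorescence (485/520 nm) was read, then CellTiter-Glo luminescence after 10 min at room temperature, and each plate was normalised to 0.1 % DMSO (100) and a positive kill control (0). Values are normalised signals, each at one concentration.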

HCC1143 [2] = experiment: as above
Outline: as §1

HCC1937 [3] = experiment: as above
Outline: as §1

HDQ-P1 [4] = experiment: as above
Outline: as §1

CAL-51 [5] = experiment: as above
Outline: as §1

MDA-MB-436 [6] = experiment: as above
Outline: as §1

MDA-MB-231 [7] = experiment: as above
Outline: as §1

MDA-MB-468 [8] = experiment: as above
Outline: as §1

CAL-148 [9] = experiment: as above
Outline: as §1

MDA-MB-453 [10] = experiment: as above
Outline: as §1

BT-474 [11] = experiment: as above
Outline: as §1

MFM-223 [12] = experiment: as above
Outline: as §1

BT-549 [13] = experiment: as above
Outline: as §1

DU-4475 [14] = experiment: as above
Outline: as §1

CAL-85-1 [15] = experiment: as above
Outline: as §1

HCC1599 [16] = experiment: as above
Outline: as §1

CAL-120 [17] = experiment: as above
Outline: as §1

MCF-10A [18] = experiment: as above
Outline: as §1

Hs578T [19] = experiment: normalised response (% of control), CellTiter-Glo; higher = more viable cells (100 = DMSO, 0 = benzethonium chloride kill control)
Method: (§2)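 DSRT, 72 h incubation, CellTox Green / CellTiter-Glo readout. Signal is normalised to DMSO and benzethonium chloride controls. Value is the normalised response at the highest dose.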

HCC1143 [20] = experiment: as above
Method: as §2

HCC1937 [21] = experiment: as above
Method: as §2

SK-BR-3 = experiment: as above
Method: as §2

HDQ-P1 [22] = experiment: as above
Method: as §2

CAL-51 [23] = experiment: as above
Method: as §2

MDA-MB-436 [24] = experiment: as above
Method: as §2

MDA-MB-231 [25] = experiment: as above
Method: as §2

MDA-MB-468 [26] = experiment: as above
Method: as §2

CAL-148 [27] = experiment: as above
Method: as §2

MDA-MB-453 [28] = experiment: as above
Method: as §2

BT-474 [29] = experiment: as above
Method: as §2

MFM-223 [30] = experiment: as above
Method: as §2

BT-549 [31] = experiment: as above
Method: as §2

DU-4475 [32] = experiment: as above
Method: as §2

CAL-85-1 [33] = experiment: as above
Method: as §2

HCC1599 [34] = experiment: as above
Method: as §2

CAL-120 [35] = experiment: as above
Method: as §2

MCF-10A [36] = experiment: as above
Method: as §2

SMILES	normalised response (Hs578T [1])	normalised response (HCC1143 [2])	normalised response (HCC1937 [3])	normalised response (HDQ-P1 [4])	normalised response (CAL-51 [5])	normalised response (MDA-MB-436 [6])	normalised response (MDA-MB-231 [7])	normalised response (MDA-MB-468 [8])	normalised response (CAL-148 [9])	normalised response (MDA-MB-453 [10])	normalised response (BT-474 [11])	normalised response (MFM-223 [12])	normalised response (BT-549 [13])	normalised response (DU-4475 [14])	normalised response (CAL-85-1 [15])	normalised response (HCC1599 [16])	normalised response (CAL-120 [17])	normalised response (MCF-10A [18])	normalised response (Hs578T [19])	normalised response (HCC1143 [20])	normalised response (HCC1937 [21])	normalised response (SK-BR-3)	normalised response (HDQ-P1 [22])	normalised response (CAL-51 [23])	normalised response (MDA-MB-436 [24])	normalised response (MDA-MB-231 [25])	normalised response (MDA-MB-468 [26])	normalised response (CAL-148 [27])	normalised response (MDA-MB-453 [28])	normalised response (BT-474 [29])	normalised response (MFM-223 [30])	normalised response (BT-549 [31])	normalised response (DU-4475 [32])	normalised response (CAL-85-1 [33])	normalised response (HCC1599 [34])	normalised response (CAL-120 [35])	normalised response (MCF-10A [36])
CC1(C)CCC(CN2CCN(c3ccc(C(=O)NS(=O)(=O)c4ccc(NCC5CCOCC5)c([N+](=O)[O-])c4)c(Oc4cnc5[nH]ccc5c4)c3)CC2)=C(c2ccc(Cl)cc2)C1 [ABT-199] (10000 nM)	102%	103%	-11.4%	98.2%	101%	95.9%	-19%	118%	98.2%	97.7%	101%	86.4%	84.9%	97.9%	114%	105%	88.4%	108%	90.5%	93.7%	73.2%	90%	90.8%	119%	102%	66.3%	85.9%	105%	92.9%	70.2%	91%	91.4%	86.2%	97.8%	66.4%	98.5%	116%
COc1cc(F)c(F)c(Nc2ccc(I)cc2F)c1NS(=O)(=O)C1(C[C@H](O)CO)CC1 [Refametinib] (10000 nM)	97.8%	106%	88.4%	82.1%	101%	95.6%	64.1%	-53.7%	75.8%	102%	99.6%	97.9%	101%	69.6%	-0.94%	107%	92%	65.8%	55.1%	67.3%	58.5%	77.2%	43.6%	92.5%	54.8%	43.7%	45.2%	65.8%	82.7%	47.8%	41%	65.7%	0.11%	23.8%	102%	55.7%	25%
C[C@]1(O)C[C@@H](c2nc(-c3ccc4ccc(-c5ccccc5)nc4c3)c3c(N)nccn32)C1 [Linsitinib] (10000 nM)	68.2%	119%	105%	107%	95.4%		65%	96.4%	98.4%	99.2%	95.6%	89.9%	111%	97.4%	89.2%	101%	97.5%	101%	91.9%	68.5%	88.7%	49.9%	53.5%	126%	85.5%	77.2%	59.2%	88.2%	80%	68.8%	83.1%	76%	85.5%	69.6%	50.9%	73.6%	26.1%
